Data reported in article PMC10077549 (ACS Omega, 2023).

Target: T1, soybean lipoxygenase LOX-1 (Glycine max, UniProt P08170)
T1 sequence (P08170 1-839): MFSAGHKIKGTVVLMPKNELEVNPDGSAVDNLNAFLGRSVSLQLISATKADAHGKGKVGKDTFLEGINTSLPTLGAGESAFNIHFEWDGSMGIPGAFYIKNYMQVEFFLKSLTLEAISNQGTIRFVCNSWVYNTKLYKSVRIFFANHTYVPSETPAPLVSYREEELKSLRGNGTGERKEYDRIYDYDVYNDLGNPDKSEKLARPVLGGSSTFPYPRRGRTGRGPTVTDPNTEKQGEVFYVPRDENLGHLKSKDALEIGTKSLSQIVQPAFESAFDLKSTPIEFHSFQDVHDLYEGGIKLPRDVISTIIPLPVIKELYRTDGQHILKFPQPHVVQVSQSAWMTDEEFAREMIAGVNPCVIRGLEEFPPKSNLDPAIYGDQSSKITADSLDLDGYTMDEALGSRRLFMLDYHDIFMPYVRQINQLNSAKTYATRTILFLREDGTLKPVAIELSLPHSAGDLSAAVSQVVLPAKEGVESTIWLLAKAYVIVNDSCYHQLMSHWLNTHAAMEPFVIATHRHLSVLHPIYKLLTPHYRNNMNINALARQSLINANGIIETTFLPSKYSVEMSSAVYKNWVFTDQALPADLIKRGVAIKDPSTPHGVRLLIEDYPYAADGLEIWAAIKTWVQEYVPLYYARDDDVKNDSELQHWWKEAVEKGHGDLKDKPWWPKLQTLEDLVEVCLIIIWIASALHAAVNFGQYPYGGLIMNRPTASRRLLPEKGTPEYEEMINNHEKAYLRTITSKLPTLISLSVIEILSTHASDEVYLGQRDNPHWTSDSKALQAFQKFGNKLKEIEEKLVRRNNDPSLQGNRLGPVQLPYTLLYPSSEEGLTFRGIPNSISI
Assay type: biochemical

| SMILES | IC50 [µM] |
| --- | --- |
| NNC(=S)N/N=C/c1ccccc1 [DKI5, (E)-N′-benzylidenehydrazinecarbothiohydrazide] | 22.5 |
| SC1=NC(c2ccccc2)=CC(c2ccccc2)N1 (centres unmarked) [KKII5, 4,6-diphenyl-3,4-dihydropyrimidine-2(1H)-thione] | 19 |
